Assay results: patent US20120225862A1, “HETEROARYL BENZAMIDES, COMPOSITIONS AND METHODS OF USE” (AUCKLAND UNIVSERVICES LIMITED, priority 2009, published 2012)

How the values were obtained:
[1] = system: RCC4; assay: XTT IC50 / viability assay, RCC4 cells; assay type: cell-based, human; conditions: Homo sapiens, RCC4, 96 h; XTT assay, four days
Method in brief: (§1)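 RCC4 parental and VHL-reintroduced RCC4/VHL cells (DMEM, 10% FCS) treated with serially diluted drug for four days. Viability by XTT (0.3 mg/mL) with N-methyl dibenzopyrazine methyl sulfate, 1–2 h at 37 °C, absorbance 450 nm; IC50 by linear interpolation.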

[2] = system: RCC4/VHL; assay: XTT IC50 assay, selectivity RCC4 versus RCC4 with VHL-reintroduced; assay type: cell-based, human; conditions: selectivity ratio of XTT IC50 values, RCC4 vs RCC4/VHL
Method in brief: as §1

melting point	Structure (SMILES)	IC50 [1]	Ratio (RCC4:RCC/VHL) [2]
203 to 205 °C	Cc1cc(C(=O)Nc2cccnc2)ccc1CNS(=O)(=O)c1ccc(C(C)(C)C)cc1 [Example 147, 4-({[(4-tert-Butylphenyl)sulfonyl]amino}methyl)-3-methyl-N-(3-pyridinyl)benzamide]	–	–
215 to 218 °C	CCC(=O)Nc1cccc(S(=O)(=O)NCc2ccc(C(=O)Nc3cccnc3)cc2)c1 [Example 143, 4-[({[3-(Propionylamino)phenyl]sulfonyl}amino)methyl]-N-(3-pyridinyl)benzamide]	–	–
211 to 213 °C	N#Cc1cc(S(=O)(=O)NCc2ccc(C(=O)Nc3cccnc3)cc2)ccc1F [Example 71, 4-((3-Cyano-4-fluorophenylsulfonamido)methyl)-N-(pyridin-3-yl)benzamide]	–	–
261 to 263 °C	CC(C)(C)c1ccc(S(=O)(=O)NCc2ccc(C(=O)Nc3ccncc3)cc2)cc1 [Example 106, 4-((4-tert-Butylphenylsulfonamido)methyl)-N-(pyridin-4-yl)benzamide]	–	–
–	Cc1ccc(-c2ccc(S(=O)(=O)NCc3ccc(C(=O)Nc4cccnc4)cc3)cc2)cc1 [Example 53, 4-({[(4′-Methyl[1,1′-biphenyl]-4-yl)sulfonyl]amino}methyl)-N-(3-pyridinyl)benzamide]	1 to 20 µM	a (“a” reflects a ratio of RCC4/RCC-VHL+ ranging from 1 to 10)
–	O=C(Nc1cccnc1)c1ccc(CNS(=O)(=O)c2ccc(-n3cccn3)cc2)cc1 [Example 58, 4-[({[4-(1H-Pyrazol-1-yl)phenyl]sulfonyl}amino)methyl]-N-(3-pyridinyl)benzamide]	1 to 20 µM	a (“a” reflects a ratio of RCC4/RCC-VHL+ ranging from 1 to 10)
–	CCCN(CCC)Cc1ccc(S(=O)(=O)NCc2ccc(C(=O)Nc3cccnc3)cc2)cc1 [Example 79, 4-{[({4-[(Dipropylamino)methyl]phenyl}sulfonyl)amino]methyl}-N-(3-pyridinyl)benzamide]	< 1 µM	b (“b” reflects from 10 to 100)
–	O=C(Nc1cccnc1)c1ccc(CNS(=O)(=O)c2ccc3c(c2)CCC3)cc1 [Example 74, 4-((2,3-Dihydro-1H-indene-5-sulfonamido)methyl)-N-(pyridin-3-yl)benzamide]	< 1 µM	c (“c” reflects a ratio of >100)
–	CC(=O)Nc1ccc(S(=O)(=O)NCc2ccc(C(=O)Nc3cccnc3)cc2)cc1 [Example 42, 4-((4-Acetamidophenylsulfonamido)methyl)-N-(pyridin-3-yl)benzamide]	1 to 20 µM	a (“a” reflects a ratio of RCC4/RCC-VHL+ ranging from 1 to 10)
–	N#Cc1ccccc1S(=O)(=O)NCc1ccc(C(=O)Nc2cccnc2)cc1 [Example 16, 4-((2-Cyanophenylsulfonamido)methyl)-N-(pyridin-3-yl)benzamide]	> 20 µM	a (“a” reflects a ratio of RCC4/RCC-VHL+ ranging from 1 to 10)
–	N#Cc1ccc(S(=O)(=O)NCc2ccc(C(=O)Nc3cccnc3)cc2)cc1 [Example 50, 4-((4-Cyanophenylsulfonamido)methyl)-N-(pyridin-3-yl)benzamide]	1 to 20 µM	a (“a” reflects a ratio of RCC4/RCC-VHL+ ranging from 1 to 10)
–	Cc1ccccc1S(=O)(=O)NCc1ccc(C(=O)Nc2cccnc2)cc1 [Example 10, 4-((2-Methylphenylsulfonamido)methyl)-N-(pyridin-3-yl)benzamide]	1 to 20 µM	a (“a” reflects a ratio of RCC4/RCC-VHL+ ranging from 1 to 10)
–	O=C(Nc1cccnc1)c1ccc(CNS(=O)(=O)c2cccc(Br)c2)cc1 [Example 22, 4-((3-Bromophenylsulfonamido)methyl)-N-(pyridin-3-yl)benzamide]	< 1 µM	b (“b” reflects from 10 to 100)
–	Cc1nc(-c2ccc(S(=O)(=O)NCc3ccc(C(=O)Nc4cccnc4)cc3)cc2)cs1 [Example 59, 4-[({[4-(2-Methyl-1,3-thiazol-4-yl)phenyl]sulfonyl}amino)methyl]-N-(3-pyridinyl)benzamide]	1 to 20 µM	b (“b” reflects from 10 to 100)
–	O=C(Nc1cccnc1)c1ccc(CNS(=O)(=O)c2ccc(-c3ccc(Cl)cc3)cc2)cc1 [Example 56, 4-({[(4′-Chloro[1,1′-biphenyl]-4-yl)sulfonyl]amino}methyl)-N-(3-pyridinyl)benzamide]	1 to 20 µM	b (“b” reflects from 10 to 100)
–	O=C(Nc1cccnc1)c1ccc(CNS(=O)(=O)c2ccc(-c3cn(Cc4ccccc4)nn3)cc2)cc1 [Example 102, 4-[({[4-(1-benzyl-1H-1,2,3-triazol-4-yl)phenyl]sulfonyl}amino)methyl]-N-(3-pyridinyl)benzamide]	> 20 µM	a (“a” reflects a ratio of RCC4/RCC-VHL+ ranging from 1 to 10)
–	O=C(Nc1cccnc1)c1ccc(CNS(=O)(=O)c2ccc(N3CCCCC3)cc2)cc1 [Example 128, 4-[({[4-(1-Piperidinyl)phenyl]sulfonyl}amino)methyl]-N-(3-pyridinyl)benzamide]	< 1 µM	c (“c” reflects a ratio of >100)
–	O=C(Nc1cccnc1)c1ccc(CNS(=O)(=O)c2ccc(-c3ncccn3)cc2)cc1 [Example 57, 4-[({[4-(2-Pyrimidinyl)phenyl]sulfonyl}amino)methyl]-N-(3-pyridinyl)-benzamide]	< 1 µM	b (“b” reflects from 10 to 100)
–	CC(C)(C)c1ccc(S(=O)(=O)NCc2ccc(C(=O)Nc3cccnc3F)cc2)cc1 [Example 123, 4-({[(4-tert-Butylphenyl)sulfonyl]amino}methyl)-N-(2-fluoro-3-pyridinyl)benzamide]	1 to 20 µM	a (“a” reflects a ratio of RCC4/RCC-VHL+ ranging from 1 to 10)
–	CC(=O)c1ccc(S(=O)(=O)NCc2ccc(C(=O)Nc3cccnc3)cc2)cc1 [Example 48, 4-((4-Acetylphenylsulfonamido)methyl)-N-(pyridin-3-yl)benzamide]	< 1 µM	b (“b” reflects from 10 to 100)
–	Cc1ccc(S(=O)(=O)NCc2ccc(C(=O)Nc3cccnc3)cc2)cc1F [Example 67, 4-((3-Fluoro-4-methylphenylsulfonamido)methyl)-N-(pyridin-3-yl)benzamide]	< 1 µM	c (“c” reflects a ratio of >100)
–	O=C(Nc1cccnc1)c1ccc(CNS(=O)(=O)c2cccc([N+](=O)[O-])c2)cc1 [Example 25, 4-((3-Nitrophenylsulfonamido)methyl)-N-(pyridin-3-yl)benzamide]	1 to 20 µM	b (“b” reflects from 10 to 100)
–	Cc1cc(C)cc(COC(=O)NCc2ccc(C(=O)Nc3cccnc3)cc2)c1 [Compound A, reference compound]	> 20 µM	a (“a” reflects a ratio of RCC4/RCC-VHL+ ranging from 1 to 10)
–	Cc1cccc(Nc2nc(-c3ccncc3)cs2)c1 [Compound E, reference compound]	1 to 20 µM	b (“b” reflects from 10 to 100)
–	O=C(Nc1cccnc1)c1ccc(CNS(=O)(=O)c2ccc(Cl)c(Cl)c2)cc1 [Example 70, 4-((3,4-Dichlorophenylsulfonamido)methyl)-N-(pyridin-3-yl)benzamide]	1 to 20 µM	b (“b” reflects from 10 to 100)
